Tests used:
[1] = target: T1, human STING WT (R232); assay: Human STING HTRF binding assay (competitive, Cisbio 64BDSTGPEG); settings: 6His tagged human STING WT R232, competition with STING ligand-d2
T1 construct: purchased Cisbio 64BDSTGPEG
Experimental: Binders to human STING WT (R232) were identified using a competitive HTRF assay format (Cisbio 64BDSTGPEG), which uses d2-labeled STING ligand, a 6His tagged human STING protein, and an anti 6His Cryptate-labeled antibody. Compounds compete with the STING ligand-d2 and thereby prevents FRET from occurring, which can be measured by an EnVision™ reader (PerkinElmer).
Assay method: Compounds were delivered as 10 mM DMSO solution, serially diluted by an Agilent Bravo Workstation and transferred to the 384 well assay plate (Perkin Elmer #6005359) using a Cybiwell dispenser. Typically, 8 concentrations were used with the highest concentration at 10 μM or 1 μM in the final assay volume followed by ^˜1:5 dilution steps. DMSO concentration was set to 1% in the final assay volume. The 384 well assay plate contained 20 test compounds and DMSO in column 23 and 24. A cGAMP standard dilution row was prepared according to the manufacturer and transferred to each assay plate. After transfer of compound solution or dilution buffer for negative (high) and positive (low) controls, 5 μl of the human STING protein (cyclic binding domain (residues 138-379) of the WT R232 human version, fused to a 6 His tag at the Nter part; 1:50 dilution in detection buffer) were dispensed to all wells except of the positive control, which received detection buffer only. Plates were the centrifuged for 20 sec at 1000 rpm. After that, 10 μl of Anti-6His-Cryptate antibody/Sting ligand-d2 mix was added to all wells using a Multidrop combi dispenser, followed by another 20 sec/1000 rpm centrifugation step. After an incubation of the plates for 180 min at room temperature, […] at […] (HTRF ratio) was measured using an Envison Reader (PerkinElmer)
Data evaluation and calculation: For data evaluation and calculation, HTRF ratios were calibrated using the cGAMP standard curve. After that, the measurement of the low control was set as 0% control and the measurement of the high control was set as 100% control. The IC50 values were calculated using the standard 4 parameter logistic regression formula. Calculation: [y=(a−d)/(1+(x/c)^b)+d], a=low value, d=high value; x=conc M; c=IC50 M; b=slope;

[2] = test system: T2, wild-type (GRR) human STING cGAMP binding domain (residues 155-341); assay: Differential Scanning Fluorimetry (DSF), stability of STING protein against thermal denaturation; settings: 100 uM compound, 3 uM target protein
T2 construct: His-TEV-hSTING (WT); TEV protease cleavage site (N); made in house; host or cells: E. coli BL21 DE3
Experimental: Dye fluorescence is quenched in aqueous environment and increases upon association of the dye with the hydrophobic parts of the unfolding protein. […] The inflection point of the curve represents the “melting” temperature of the protein (Tm) which is calculated numerically using the Boltzmann equation.
Method: The thermal stability of the STING protein was measured using a specific expression construct of the cGAMP binding domain of wild-type (GRR) human STING comprising residues 155-341 and a N-terminal 8x His-tag in assay buffer containing 20 mM Tris, 150 mM NaCl at pH7.5.
The assay uses Hard-Shell®PCR Plates 384-Well CLR/WHT (Catalog #HSP3805, BIO-RAD), Microseal®‘B’ Adhesive Seals for PCR Plates (Catalog #MSB-1001, BIO-RAD) and was run on a CFX384 Real-Time System (Bio-Rad).
A DMSO stock solution of SYPRO orange (SIGMA S5692-500UL) was prepared.
Compound stock solutions (10 mM in DMSO) were diluted 1:2 in DMSO to an intermediate compound concentration of 5 mM and then further diluted 1:40 in assay buffer resulting in a compound concentration of 125 μM and 2.5% DMSO.
Fluorescent dye stock solution (5000×SYPRO Orange) was then mixed with target protein and buffer to a concentration of 15 uM Protein and 25×SYPRO Orange. 2 ul of this protein-dye-mixture was added to 8 ul compound solution. Final volume was 10 uL. 3-6 well positions were used as negative control (protein with 2% DMSO). The plates were prepared for duplicate measurement and centrifuged for 2 min at 1000 g. In the measurement, 160 cycles of 0.5° C. were used (temperature ramp 15 s/cycle, 15° C. to 95° C.).
Final Assay concentrations for compound characterization were as follows:
100 uM compound, 3 uM target protein, 5×SYPRO Orange, 2% DMSO in 10 ul. All dispensing steps were performed using a HamiltonStar pipetting robot (Hamilton).
Dissociation curves were processed in Bio-Rad CFX Manager. Peak type was set to “negative”.
Compound codes for screen were assigned in the plate layout.
Two replicates of TM measurements were averaged, and the standard deviation was calculated. In cases of SD>1.5° C. the measurement was repeated.
The melting point (Tm) obtained for STING protein alone was subtracted from T obtained for protein incubated with ligand to generate ΔTm values.
Protein production and purification: The protein used for the biophysical experiments was a recombinant human STING protein comprising its cytosolic ectodomain. A codon optimized DNA sequence (for expression in Escherichia coli) encoding amino acid residues 155 to 341 (Swiss Prot Q86WV6) of human STING (WT) was synthesized by GeneArt (Regensburg, Germany) and inserted into a pET17b E. coli expression vector. The protein construct encodes an N-terminal 8× His-tag followed by tobacco etch virus protease (TEV) cleavage site and the above STING gene sequence. The resulting protein sequence for the used STING variant is listed below:
For expression of recombinant human STING above construct was transformed into E. coli BL21 DE3 strain and grown in shake flasks in LB-medium at 37° C. Expression was induced by addition of isopropyl β-D-1-thiogalactopyranoside to a final concentration of 1 mM and cultures shaken overnight. Cell pellets were centrifuged and stored at −70° C. until further use. Protein was purified by cell thawing in lysis buffer (20 mM TRIS-HCl, pH 8, 300 mM NaCl, 2 mM mercaptoethanol, 20 mM imidazole, Complete Protease Inhibitor (Roche) and DNase (Roche)), followed by metal affinity purification using Ni-NTA resins and elution buffer consisting of 20 mM TRIS-HCl, pH 8, 300 mM NaCl, 2 mM mercaptoethanol, 300 mM imidazole and size exclusion chromatography in running buffer (20 mM TRIS-HCl, pH 8, 100 mM NaCl, 2 mM DTT). The peak fraction was collected and concentrated to 2.5 mg/mL.

Row | SMILES | IC50 [1] [nM] | DSF ΔTm (K) [2] [K]
1 | CCP(=O)(CC)c1ccc(-c2nc(-c3cccc4nn(-c5cc(C(F)(F)F)n(C)n5)cc34)c(C3CC3)n2C)c(OC(F)(F)F)c1 [Example 17, 4-{5-cyclopropyl-2-[4-(diethylphosphoryl)-2-(trifluoromethoxy)phenyl]-1-methyl-1H-imidazol-4-yl}-2-[1-methyl-5-(trifluoromethyl)-1H-pyrazol-3-yl]-2H-indazole] | 48.1 | 29
2 | CC[P@](C)(=O)c1ccc(-c2nc(-c3cccc4[nH]c(-c5cc(C(F)(F)F)n(C)n5)nc34)c(C3CC3)n2C)c(OC(F)(F)F)c1 [Example 18, 4-(5-cyclopropyl-2-{4-[(S)-ethyl(methyl)phosphoryl]-2-(trifluoromethoxy)phenyl}-1-methyl-1H-imidazol-4-yl)-2-[1-methyl-5-(trifluoromethyl)-1H-pyrazol-3-yl]-1H-1,3-benzodiazole] | 26.5 | 34
3 | CC[P@](C)(=O)c1ccc(-c2nc(-c3cccc4nn(-c5cc(C6CC6)n(C)n5)cc34)c(C3CC3)n2C)c(OC(F)(F)F)c1 [Example 19, 2-(5-cyclopropyl-1-methyl-1H-pyrazol-3-yl)-4-(5-cyclopropyl-2-{4-[(S)-ethyl(methyl)phosphoryl]-2-(trifluoromethoxy)phenyl}-1-methyl-1H-imidazol-4-yl)-2H-indazole] | 18 | 28
4 | Cn1nc(-n2cc3c(-c4nc(-c5ccc(P(C)(C)=O)cc5OC(F)(F)F)n(C)c4C4CC4)cccc3n2)cc1C(F)(F)F [Example 20, 4-{5-cyclopropyl-2-[4-(dimethylphosphoryl)-2-(trifluoromethoxy)phenyl]-1-methyl-1H-imidazol-4-yl}-2-[1-methyl-5-(trifluoromethyl)-1H-pyrazol-3-yl]-2H-indazole] | 49.1 | 30

Source: patent US20250333398A1, “MONOARYL AND HETARYL SUBSTITUTED INDAZOLES AND BENZIMIDAZOLES AS STING ANTAGONISTS AND THE USE THEREOF AS MEDICAMENT” (Boehringer Ingelheim International GmbH, priority 2024, published 2025)
